Source: publication PMC7024391, “Trypanocidal Activity of Flavanone Derivatives” (Molecules, 2020)
Read-outs that look alike come from different tables or passages of the source.

Tests used:
[1] = system: trypomastigote form of T. cruzi; set-up: method as in Ambrozin et al.; settings: ref Ambrozin et al.; cited from earlier work
[2] = system: T. cruzi (Trypomastigote); set-up: method as in Grecco et al. [9],[10],[11],[12]; settings: ref Grecco et al. [9],[10],[11],[12]; cited from earlier work
[3] = system: Trypanosoma cruzi (amastigotes and trypomastigotes), Tulahuen strain; test: Anti-Trypanosoma cruzi activity assay (amastigotes and trypomastigotes) in infected L929 cells, beta-galactosidase reporter; format: cell-based; settings: Trypanosoma cruzi, 96 h incubation, ± 0.2, read-out: Trypanocide IC50(μM) ± 0.2
Procedure: Flavanone derivatives were evaluated for anti-T. cruzi activity against the intracellular forms of the parasite. Although the use of epimastigotes present in the midgut vector may be utilized for initial screening, we have instead opted for the simultaneous use of trypomastigote and intracellular amastigotes forms that are present during both acute and chronic phases of the disease. This approach is in accordance with the Drugs for Neglected Diseases Initiative guidelines (DNDi). Moreover, it also has the advantage of evaluating bioactive compounds in infected cells while at the same time monitoring their effects on both the relevant forms of the parasite in the same system. Benznidazole was used as a positive control against T. cruzi and cytotoxicity was determined in mammalian L929 cells (Table 1). The bioavailability profile of the flavanones was evaluated by applying the Lipinski rule and data related to the risk of toxicity (mutagenicity, tumorigenicity, irritability, and effects on the reproductive system) carried out through online programs “Molinspiration” and “OSIRIS property explorer” (Table 1). […] Nevertheless, this preliminary result motivated us to investigate other analogs bearing substituents in order to improve potency and selectivity. […] Moreover, the selectivity of 2d was almost 4 times greater than 2a. The importance of methoxy substituents for trypanocidal activity has been noted in other studies. […] These compounds resembled more closely the chemical structure of the trypanocidal natural product (brevifolin carboxylate) that these structures were based on. Some enhancement in the trypanocidal activity of hybrid coumarin-chalcone compounds was also noted when the methoxy groups were introduced into either the 2 or 5 positions of the benzene ring. The inclusion of a pyridine moiety in compound 2e was supported by previous reports describing the anti-T. cruzi activity of 2-pyridyl derivatives and their capacity to inhibit cruzain catalytic activity. […] No improvements in anti-T. cruzi activity were also observed for flavanones substituted at the benzoyl moiety (2g–2o and 2v–2x). […] The physicochemical drug descriptors of the molecular properties for the synthesized compounds were calculated by Molinspiration software (Table 1). The majority of the tested compounds satisfy the Lipinski rule with no violations and therefore displaying potentially good bioavailability. There were no linear correlations observed between molecular hydrophobicity and bioactivity.
The in vitro anti-T. cruzi activity was evaluated on L929 cells (mouse fibroblasts) infected with Tulahuen strain of the parasite expressing the Escherichia coli β-galactosidase as reporter gene. Briefly, for the bioassay, 4000 L929 cells were added to each well of a 96-well microtiter plate. After an overnight incubation, 40,000 trypomastigotes were added to the cells and incubated for 2 h. Then, the medium containing extracellular parasites were replaced with 200 μL of fresh medium and the plate was incubated for an additional 48 h to establish the infection. For IC50 determination, the cells were exposed to each synthesized compound at serial decreasing dilutions and the plate was incubated for 96 h. After this period, 50 μL of 500 μM chlorophenol red beta-D-galactopyranoside (CPRG) in 0.5% Nonidet P40 was added to each well, and the plate was incubated for 16–20 h, after which the absorbance at 570 nm was measured. Controls with uninfected cells, untreated infected cells, infected cells treated with Benznidazole at 3.8 μM (positive control) or DMSO 1% were used. The results were expressed as the percentage of T. cruzi growth inhibition in compound-tested cells as compared to the infected cells and untreated cells. The IC50 values were calculated by linear interpolation. Quadruplicates were run in the same plate, and the experiments were repeated at least once.

[4] = In vitro cytotoxic test on uninfected L-929 cells (alamarBlue); format: cell-based, mouse; settings: mouse, uninfected L-929 cells; mammalian L929 cells, 96 h, alamarBlue; ± 2.0; read-out: Cytotoxicity CC50(μM) ± 2.0
Procedure: (§1) The active compounds were tested in vitro for determination of cellular toxicity against uninfected L-929 cells using the alamarBlue® dye. The cells were exposed to compounds at increasing concentrations starting at IC50 value for T. cruzi. After 96 h of incubation with the tested compounds, the alamarBlue® was added and the absorbance at 570 and 600 nm measured after 4–6 h. The cell viability was expressed as the percentage of difference in the reduction between treated and untreated cells. IC50 values were calculated by linear interpolation, and the selectivity index (SI) was determined based on the ratio of the IC50 value in the host cell divided by the IC50 value of the parasite. Quadruplicates were run in the same plate, and the experiments were repeated at least once.

[5] = system: L929 cells; test: as above; format: cell-based, mouse; settings: CC50 L929 / IC50 T. cruzi
Procedure: as §1

[6] = system: T. cruzi (Trypomastigote); set-up: method as in Ganapaty et al. [8]; settings: ref Ganapaty et al. [8]; cited from earlier work

Structure (SMILES) | IC50 [2] [µM] | IC50 [3] [µM] | CC50 at 96 h [4] [µM] | SI (selectivity index calculated from CC50/IC50) [5] | also measured
O=c1cc(-c2ccccc2)oc2ccccc12 [Flavone] |  |  |  |  | IC50 [1]: 9520 µM
COc1ccc2c(=O)cc(-c3ccccc3)oc2c1 [7-Methoxyflavone] |  |  |  |  | IC50 [1]: 3120 µM
COc1c(O)cc2oc(-c3ccc(O)cc3)cc(=O)c2c1O [Hispidulin] | 268 |  |  |  | 
COc1ccc(-c2cc(=O)c3c(O)c(OC)c(O)cc3o2)cc1 [Pectolinaringenin] | 164 |  |  |  | 
COc1cc(O)c2c(c1)O[C@H](c1ccc(O)cc1)CC2=O [Sakuranetin] | 70.5 |  |  |  | 
COc1ccc2c(c1)C(=O)[C@@H](C(=O)c1ccccc1)[C@H](c1ccc(F)cc1)O2 (relative stereo) [Compound 2r, trans-3-benzoyl-2-(4-fluorophenyl)-6-methoxychroman-4-one] |  | 17.6 | 106 | 6.1 | 
O=C(c1ccccc1)[C@@H]1C(=O)c2ccccc2O[C@H]1c1ccccn1 (relative stereo) [Compound 2e, trans-3-benzoyl-2-(pyridin-2-yl)chroman-4-one] |  | 184 | 243 | 1.3 | 
COc1ccc([C@@H]2Oc3ccc(OC)cc3C(=O)[C@H]2C(=O)c2ccccc2)cc1 (relative stereo) [Compound 2q, trans-3-benzoyl-6-methoxy-2-(4-methoxyphenyl)chroman-4-one] |  | 141 | 206 | 1.4 | 
Cc1ccc(C(=O)[C@@H]2C(=O)c3ccccc3O[C@H]2c2ccc(F)cc2)cc1 (relative stereo) [Compound 2h, trans-2-(4-fluorophenyl)-3-(4-methylbenzoyl)chroman-4-one] |  | 22.5 | 111 | 4.9 | 
COc1cc2c(cc1O)OC[C@H](c1cc3c(cc1O)OCO3)[C@H]2O [Pumilanol] |  |  |  |  | IC50 [6]: 10.1 µM
